Patent publication US10336763B1, “Crystal form B of ribociclib succinate” (Chunghwa Chemical Synthesis & Biotech Co. Ltd., priority 2018, dated 2019)

Experiment: crystalline stability in constant temperature and humidity chamber
Format: physicochemical
[1] = 25° C./75% RH, summary of 1 to 7 days
[2] = 80° C./75% RH, summary of 1 to 7 days
[3] = powder exposed to 25° C., 75%RH, 1 day
[4] = powder exposed to 25° C., 75%RH, 3 days
[5] = powder exposed to 25° C., 75%RH, 7 days
[6] = powder exposed to 80° C., 75%RH, 1 day
[7] = powder exposed to 80° C., 75%RH, 3 days
[8] = powder exposed to 80° C., 75%RH, 7 days

Row | crystalline form (crystalline stability) [3] | crystalline form (crystalline stability) [4] | crystalline form (crystalline stability) [5] | crystalline form (crystalline stability) [6] | crystalline form (crystalline stability) [7] | crystalline form (crystalline stability) [8] | SMILES | crystalline form (crystalline stability) [1] | crystalline form (crystalline stability) [2]
1 | Stayed as A | Stayed as A | Stayed as A | Transformed from A to B | Transformed from A to B | Transformed from A to B | CN(C)C(=O)c1cc2cnc(Nc3ccc(N4CCNCC4)cn3)nc2n1C1CCCC1.O=C(O)CCC(=O)O [Ribociclib succinate in crystalline form A] [butanedioicacid-7-cyclopentyl-N,N-dimethyl-2-[(5-piperazin-1-ylpyridin-2-yl)amino]pyrrolo[2,3-D]pyrimidine-6-carboxamide] | maintained its crystalline form | transformed from crystalline form A to crystalline form B
2 | Stayed as B | Stayed as B | Stayed as B | Stayed as B | Stayed as B | Stayed as B | CN(C)C(=O)c1cc2cnc(Nc3ccc(N4CCNCC4)cn3)nc2n1C1CCCC1.O=C(O)CCC(=O)O [Ribociclib succinate in crystalline form B] [butanedioicacid-7-cyclopentyl-N,N-dimethyl-2-[(5-piperazin-1-ylpyridin-2-yl)amino]pyrrolo[2,3-D]pyrimidine-6-carboxamide] | maintained its crystalline form and did not transform to other crystalline forms | maintained its crystalline form and did not transform to other crystalline forms
